This is an account of results in article PMC6934184, “Selective DNA-PKcs inhibition extends the therapeutic index of localized radiotherapy and chemotherapy” (The Journal of Clinical Investigation, 2019).

The experiment addresses T1, STK33 (Homo sapiens, UniProt Q9BYT3).
T1 construct: purchased Thermo Fisher Scientific (Life Technologies) SelectScreen
As to the kind of experiment: SelectScreen LanthaScreen. In kind it is binding. Particulars: read-out: % displacement. In short, it runs like this: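 SelectScreen broad panel; activity (Z'LYTE, Adapta) plus binding formats. ATP: Km app for CSF1R Z'LYTE; 10 for CAMK1 Adapta. Readout = % per kinase.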
Background: Time-resolved FRET reads energy transfer from a long-lived donor to a nearby acceptor.

The structures appear in SMILES notation.

T1 sequence (Q9BYT3 whole entry): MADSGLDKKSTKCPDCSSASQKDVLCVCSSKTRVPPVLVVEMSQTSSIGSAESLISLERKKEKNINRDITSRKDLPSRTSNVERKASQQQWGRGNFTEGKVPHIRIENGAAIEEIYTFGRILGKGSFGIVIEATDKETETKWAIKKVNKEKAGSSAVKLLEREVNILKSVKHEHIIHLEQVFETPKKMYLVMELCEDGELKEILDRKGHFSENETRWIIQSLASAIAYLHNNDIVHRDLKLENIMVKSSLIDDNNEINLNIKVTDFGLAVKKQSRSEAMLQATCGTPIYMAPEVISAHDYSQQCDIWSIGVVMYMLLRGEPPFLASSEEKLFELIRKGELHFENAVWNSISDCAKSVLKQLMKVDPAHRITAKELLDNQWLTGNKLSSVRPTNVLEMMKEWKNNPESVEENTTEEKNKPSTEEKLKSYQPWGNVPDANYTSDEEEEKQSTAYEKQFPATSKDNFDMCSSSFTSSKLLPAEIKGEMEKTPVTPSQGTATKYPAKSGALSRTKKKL

Take `CN(C(=O)CN1CCOCC1)c1ccc2sc3c(-c4cccc5c(=O)cc(N6CC7CCC(C6)O7)oc45)cccc3c2c1` [NU5455]: the inhibition at 1 µM turned out to be 4.7%.
